This is an account of results in US12213959B2, “Use of 3-O-sulfamoyloxy-7β-methyl-d-homo-6-oxaestra-1,3,5(10),8(9)-tetraen-17a-one to treat breast cancer” (priority 2018, dated 2025).

Marks after values point to notes of the source that are not given here.

The test system of one data set is uterine body. Nature of the data set: Hormonal effects on the uterine body (uterine weight). The format is in vivo, mice. As to conditions: Tamoxifen-2, 4 mg/kg, end of observation. As to the method: The hormonal effects of the medicament on the uterine body was analyzed by comparing the uterine weight without uterine horns at the end of the observation period (Table 13).

The test system of data set [1] is MCF-7 human cells culture (breast adenocarcinoma). The data set can be described thus: Proliferative activity of MCF-7 cells. The format is cell-based. The method, then:
The study analysis was carried out on an passaged MCF-7 human cells culture culture (breast adenocarcinoma). Normal human dermal fibroblasts (HDF) of early passages were used as a negative control.
The cells were cultivated in Carrel vials in DMEM/F12 medium (Biolot) with 1.0% of antibiotic-free fetal bovine embryonic serum (Biolot) added in the 5% CO2 atmosphere, at 37° C.
The cells were seeded on Carrel vials at 50×10^4 cells per flask. To study the proliferative activity of the cells under conditions of sulfatase inhibition, 24 hours after seeding the culture medium […], and then these tumor cell lines were incubated for various periods of time (24 to 72 hrs). The inhibitor was dissolved in DMSO. […] To exclude the cytotoxic effect of DMSO, a control sample comprising DMSO without sulfatase inhibitor was prepared.
To exclude nonspecific detrimental effects of the compounds, normal human skin fibroblasts were used. Then the cells were detached with the versene-trypsin solution (Biolot), plated onto Carrel vials containing a fresh complete culture medium. The cells were counted when untreated control cells reached the maximum cell density per unit of surface area of a culture flask (monolayer), and their number was set as 100%. The proliferative activity of all of the studied cell cultures exposed to sulfatase inhibitors was determined in triplicate.

Data set [2] can be described thus: Body weight and tolerability during the antitumour study. The note with it: for Average body weight of mice (M): 4.0 mg/kg daily i.g.; for Body weight: Tamoxifen-2, 4 mg/kg, end of observation. As to the method: The study medicament was administered i.g. using a metal atraumatic gavage (with the procedure corresponds to the oral route of administration in clinical settings). […] Ex tempore solutions of the medicament for administration were prepared in olive oil (refined olive oil supplemented with unrefined extra virgin olive oil available under Global Village “Clasico” trademark, lot L:183351116, expiry date 26.04.2020, BAIEO, Spain). The administered volume was 0.1 ml per 10 g of a mouse body weight (0.2 ml of a ready-to-use formulation for a mouse of 20 g). The medicament administration was started 24 hours after the randomization. Duration of the administration course was 27-28 days.
This dose corresponds to a human daily dose of 20 mg/kg.
The evaluation criteria included the clinical observation data, animals body weights, time of death (if applicable), tumor growth over time, pathomorphological examination data (verification of a neoplasm during autopsy, assessment of toxic effects by macroscopic presentation of changes in the internal organs).
The animals body weights were recorded before the first administration of the medicaments and then twice per week using a verified high-speed electronic laboratory balance Ohaus Scout Pro (USA) with a maximum load of 2000 g and a measurement pitch of 0.1 g.

Data set [3] has as its system breast tumours in FBV/N female mice, transgenic for HER-2/neu. Nature of the data set: Antitumour activity on breast tumours of HER-2/neu transgenic mice. The note with it: for Relative change of the average total volume of tumours to that of Day −1 (M): Tamoxifen-1, 4.0 mg/kg daily i.g.; for Average total volume of tumours in mice (M) / Average volume of tumors existing at the beginning of the experiment (M) / TGI (average total tumour volume) / TGI (average tumor volume): Tamoxifen-1 group; for Average total volume of tumours in mice (M) / Average volume of tumors existing at the beginning of the experiment (M): 4.0 mg/kg daily i.g.; for TGI (average total tumour volume) / TGI (average tumor volume): 4.0 mg/kg. Format: in vivo. The method, then:
The study was carried out on female FVB mice transgenic for HER-2/neu of the conventional category, the strain being obtained from the mouse bank Charles River Laboratories (Italy).
Duration of the administration course was 27-28 days.
The control groups were given the olive oil (placebo).
The macroscopically detectable tumor nodes were measured in the animals once per week during the weighing process.

Data set [4] concerns breast cancer cells MCF-7. The note with it: cited from earlier work.
The conditions of data set [5]: in vivo; cited from earlier work.

As for `CC/C(=C(\c1ccccc1)c1ccc(OCCN(C)C)cc1)c1ccccc1` [Tamoxifen, reference compound], the Uterine weight in the data set with uterine body (All mice) and in the data set with uterine body (estrous cycle phase E) was 28 ± 1 MI each time. Besides, in data set [1], the “inhibition of proliferation of MCF-7 tumour cells, compared with steroid of formula 2” value is reported as “inhibited to the same extent”. Besides, the “Average body weight of mice (M)” value in data set [2] (Tamoxifen-1 group, Day 1) is given as 27.7 g; in data set [2] (Tamoxifen-1 group, Day 6) it was 26.5 g; in data set [2] (Tamoxifen-1 group, Day 13), 27.3 g; in data set [2] (Tamoxifen-1 group, Day 20) it was 27.5 g; in data set [2] (Tamoxifen-1 group, Day 27), 28.2 g; in data set [2] (Tamoxifen-2 group, Day 1), 31.0 g. For the same molecule, the “Average body weight of mice (M)” value in data set [2] (Tamoxifen-2 group, Day 7) came out at 32.0 g; in data set [2] (Tamoxifen-2 group, Day 14), 32.9 g; in data set [2] (Tamoxifen-2 group, Day 21), 32.8 g; in data set [2] (Tamoxifen-2 group, Day 28), 34.2 g. For the same molecule, the Body weight in data set [2] (All mice) and in data set [2] (estrous cycle phase E) was 34.2 ± 1.4 g in each case. Moreover, the entries for the “Relative change of the average total volume of tumours to that of Day −1 (M)” value in data set [3] (Day 6), in data set [3] (Day 13) and in data set [3] (Day −1) were 40%, 80** % and 0%, respectively. For the same molecule, the “Average total volume of tumours in mice (M)” value in data set [3] (Day 6) was 1 0.76 cm^3; in data set [3] (Day 13) it was 0.88 cm^3; in data set [3] (Day −1), 0.66 cm^3. The “Average volume of tumors existing at the beginning of the experiment (M)” value in data set [3] (Day 6) turned out to be 0.26 cm^3; in data set [3] (Day 13) it was 0.3 cm^3; in data set [3] (Day 20) it was 0.47 cm^3; in data set [3] (Day 27), 0.58 cm^3; in data set [3] (Day −1), 0.23 cm^3. The “TGI (average total tumour volume)” value in data set [3] (vs Control-2, Day 6) is −162%; in data set [3] (vs Control-2, Day 13), −35%; in data set [3] (vs Control-2, Day 20), −39%; in data set [3] (vs Control-2, Day 27), −21%; in data set [3] (vs Control-2, Day −1) it was −247%. Besides, the “TGI (average tumor volume)” value in data set [3] (vs Control-2, Day 6) is recorded as −100%; in data set [3] (vs Control-2, Day 13), −7%; in data set [3] (vs Control-2, Day 20) it was −9%; in data set [3] (vs Control-2, Day 27 (end of observation)) it was 5%; in data set [3] (vs Control-2, Day −1), −188%. The “relative change in the total volume of tumours versus Control-3 group” value in data set [3] (Tamoxifen-2 group) is on record as “exceeded the value across the Control-3 group”. Also, the “average volume of tumours exceeded the control group by” value in data set [3] (Tamoxifen-2 group, end of the experiment) turned out to be 31%.

In the case of `C[C@H]1Oc2cc(OS(N)(=O)=O)ccc2C2=C1C1=CCC[C@H](OS(N)(=O)=O)[C@@]1(C)CC2` [3,17αβ-disulfamoyloxy-7β-methyl-D-homo-6-oxa-estra-1,3,5(10), 8,14-pentaen], the “growth of breast cancer cells MCF-7” value in data set [4] was “inhibitor of the growth”.

On to `C[C@]12CC[C@@H]3c4ccc(OS(N)(=O)=O)cc4CC[C@H]3[C@@H]1CCC2=O` [estrone sulfamate], for which the uterotropic activity entry in data set [5] was “strong uterotropic activity”.
